Tested on: L5 nerve transection-induced allodynia and hyperalgesia
Experiment: Chung (L5 spinal nerve transection) neuropathic pain model
Format: in vivo, rat
Text: The Chung (L5 nerve transection) is a well-known model for chronic (neuropathic) pain. […]
The activity of KAI-1678 has been evaluated in the L5 transection model or modified Chung model, is a mononeuropathic pain model in which the L5 spinal nerve is surgically transected, resulting in rapid development of sustained pain. The activity of KAI-1678 in this model is described below.
The rat L5 spinal nerve transection model has been used to evaluate the response to modulators of neuropathic pain. In the studies described below surgical transaction of the L5 spinal nerve was used to elicit mechanical allodynia, mechanical hyperalgesia and thermal hyperalgesia that characterize neuropathic pain. In this model, the neuropathic effects develop within a day and are reported to last for 1-2 months.
Mechanical allodynia and mechanical hyperalgesia are measured using calibrated von Frey filaments to elicit a flexion withdrawal response (paw withdrawal response) by pressing them against the plantar surface of the hindpaw on the same side as the nerve transection. The 2 g, 6 g and 10 g von Frey filaments are used to assess allodynia since these stimuli are normally innocuous to naïve animals. The 15 g, 26 g and 60 g filaments are used to assess algesia (response to noxious stimulus) since these stimuli elicit paw withdrawals in naïve animals and are considered to represent painful stimuli.
The existence of the disease state following nerve transection is confirmed based on tests performed with the 2 g and the 10 g filaments.
Once the disease state is confirmed, evaluation of the extent of mechanical allodynia or hyperalgesia is determined by observing the number of paw withdrawals in responsse to 5 tests with each of the von Frey filaments. Results are typically expressed either as the total number of paw withdrawals for the allodynic filaments (2 g, 6 g and 10 g for a total of 15 tests) or the algesic filaments (15 g, 26 g and 60 g for a total of 15 tests), or as the lowest filament to which the animals in a group have an average positive response defined as ≧3 withdrawals out of 5 tests with a particular filament. […]
Rats given an L5 spinal nerve transection were treated with a bolus subcutaneous dose of KAI-1678 ranging from 0.00025-0.25 mcg/rat (˜0.001-1 mcg/kg) on day 7 post-transection. The degree of mechanical allodynia and hyperalgesia was evaluated based on the number of paw withdrawals (out of 30) in response to 6 different von Frey filaments before and up to 3 hours after administration of the compound.

[1] = subcutaneous bolus 0.1 and 1 mcg/kg

Substance: Ac-EAVSLKPTGGYGRKKRRQRRR-NH2 [KAI-1678]
- Mechanical allodynia, 10 g filament (minipump 0.025 and 0.25 mcg/day, lasted until Day 7 post-pump implantation): nearly complete reversal of mechanical allodynia
- Duration of anti-hyperalgesic effect [1]: at least 2 hours
- Mechanical hyperalgesia, 15 g, 26 g and 60 g von Frey filaments [1]: completely reverses mechanical hyperalgesia
- Doses giving dose-dependent decrease in mechanical allodynia and mechanical hyperalgesia (subcutaneous bolus, day 7 post-transection, FIG. 25): ≥ 0.01 µg/kg
- Potency relative to carrageenan-induced inflammatory pain model (subcutaneous infusion): about 1000 fold
- Dose rates substantially reducing mechanical allodynia (subcutaneous osmotic minipump, 10 g filament, FIG. 26): ≥ 0.0025 µg/day

From patent US8492346B2, “Methods of use of epsilon inhibitor compounds for the attenuation of pain” (KAI Pharmaceuticals, Inc., priority 2007, dated 2013)
